Test results: patent US10231453B2, “5-substituted imidazole derivatives” (BAYER CROPSCIENCE AKTIENGESELLSCHAFT, priority 2015, dated 2019)
Like-named read-outs stand apart in the source and are kept apart here.

Legend:
Botrytis cinerea = test: In vivo preventive test on Botrytis cinerea (grey mould) on gherkin, Examples B, Q1 and R2; conditions: for pest or weed control at 500 ppm / pest or weed control at 100 ppm: Botrytis cinerea
Septoria tritici = test: In vivo preventive test on Septoria tritici (leaf spot on wheat), Examples E, Q3 and R5; conditions: Zymoseptoria tritici, 576 h, 500 ppm of active ingredient; wheat, preventive spray, evaluated 24 days after inoculation; read-out: efficacy
Puccinia recondita = test: In vivo preventive test on Puccinia recondita (brown rust on wheat), Examples C and R3; conditions: Puccinia recondita, 264 h; 500 ppm of active ingredient; wheat, preventive spray, evaluated 11 days after inoculation; read-out: efficacy
[1] = Measurement of LogP values by HPLC on reversed phase columns (EEC directive 79/831 Annex V.A8); type: physicochemical; conditions: method [a]: LC-UV, acidic range, 0.1% formic acid in water and acetonitrile as eluent; Table 1
Experimental: Measurement of Log P values was performed as outlined above.

Uromyces appendiculatus = test: In vivo preventive test on Uromyces appendiculatus (bean rust), Examples G and R7; conditions: 264 h, 500 ppm of active ingredient, bean, preventive spray, evaluated 11 days after inoculation, read-out: efficacy
Pyrenophora teres = test: In vivo preventive test on Pyrenophora teres (net blotch on barley), Examples D, Q2 and R4; conditions: Pyrenophora teres, 336 h, 500 ppm of active ingredient, preventive spray, evaluated 14 days after inoculation, read-out: efficacy
Sphaerotheca fuliginea = test: In vivo preventive test on Sphaerotheca fuliginea (powdery mildew on cucurbits), Examples F and R6; conditions: Podosphaera fuliginea, 360 h; 500 ppm of active ingredient; gherkin, preventive spray, evaluated 15 days after inoculation; read-out: efficacy
[2] = Example R2, rate of application 100 ppm
[3] = Example R2, rate of application 500 ppm
[4] = 500 ppm of active ingredient, preventive spray, evaluated 4 to 5 days after inoculation, read-out: efficacy
[5] = Example R2, rate of application 100 ppm, read-out: Efficacy in %
[6] = Example R2, rate of application 500 ppm, read-out: Efficacy in %

OC(Cc1ccc(Cl)cc1F)(Cn1cnc(Br)c1)C1(Cl)CC1 (racemic) [drawing 79, reference compound]
Efficacy in % (Botrytis cinerea; [2]): 0% | Efficacy in % (Botrytis cinerea; [3]): 19%

N#Cc1cn(CC(O)(Cc2ccc(Cl)cc2F)C2(Cl)CC2)cn1 (racemic) [drawing 81, reference compound]
Efficacy in % (Botrytis cinerea; [2]): 0% | Efficacy in % (Botrytis cinerea; [3]): 0%

OC(Cc1ccc(Cl)cc1F)(Cn1cnc(Cl)c1)C1(Cl)CC1 (racemic) [drawing 83, reference compound]
Efficacy in % (Botrytis cinerea; [2]): 0% | Efficacy in % (Botrytis cinerea; [3]): 0%

OC(Cc1cccnc1Cl)(Cn1cncc1Cl)C1(Cl)CC1 (centres unmarked) [Example I-07]
pest or weed control at 500 ppm (Septoria tritici): 90 to 100% | pest or weed control at 500 ppm (Puccinia recondita): 80 to 89% | chromatographic logP [1]: 1.57 | pest or weed control at 500 ppm (Uromyces appendiculatus): 90 to 100% | pest or weed control at 500 ppm (Pyrenophora teres): 70 to 79% | pest or weed control at 500 ppm (Sphaerotheca fuliginea): 90 to 100%

OC(Cc1ccccc1Cl)(Cn1cncc1I)C1(Cl)CC1 (centres unmarked) [Example I-14]
pest or weed control at 500 ppm (Septoria tritici): 90 to 100% | pest or weed control at 500 ppm (Puccinia recondita): 80 to 89% | pest or weed control at 500 ppm (Botrytis cinerea; [4]): 90 to 100% | chromatographic logP [1]: 2.14 | pest or weed control at 500 ppm (Uromyces appendiculatus): 90 to 100% | pest or weed control at 500 ppm (Pyrenophora teres): 80 to 89% | pest or weed control at 500 ppm (Sphaerotheca fuliginea): 90 to 100%

N#CCc1cncn1CC(O)(Cc1ccccc1Cl)C1(Cl)CC1 (centres unmarked) [Example I-21]
pest or weed control at 500 ppm (Septoria tritici): 70 to 79% | pest or weed control at 500 ppm (Puccinia recondita): 80 to 89% | pest or weed control at 500 ppm (Botrytis cinerea; [4]): 90 to 100% | chromatographic logP [1]: 1.66 | pest or weed control at 500 ppm (Uromyces appendiculatus): 70 to 79% | pest or weed control at 500 ppm (Sphaerotheca fuliginea): 90 to 100%

N#Cc1cncn1CC(O)(Cc1cccc(Br)c1)C1(Cl)CC1 (centres unmarked) [Example I-45]
pest or weed control at 500 ppm (Septoria tritici): 90 to 100% | pest or weed control at 500 ppm (Puccinia recondita): 90 to 100% | pest or weed control at 500 ppm (Botrytis cinerea; [4]): 80 to 89% | pest or weed control at 500 ppm (Uromyces appendiculatus): 90 to 100% | pest or weed control at 500 ppm (Pyrenophora teres): 80 to 89% | pest or weed control at 500 ppm (Sphaerotheca fuliginea): 90 to 100%

N#Cc1cncn1CC(O)(Cc1cc(Cl)ncc1Cl)C1(Cl)CC1 (centres unmarked) [Example I-56]
pest or weed control at 500 ppm (Septoria tritici): 90 to 100% | pest or weed control at 500 ppm (Puccinia recondita): 80 to 89% | chromatographic logP [1]: 2.62 | pest or weed control at 500 ppm (Uromyces appendiculatus): 90 to 100% | pest or weed control at 500 ppm (Pyrenophora teres): 70 to 79% | pest or weed control at 500 ppm (Sphaerotheca fuliginea): 90 to 100%

Cc1cccc(CC(O)(Cn2cncc2C#N)C2(Cl)CC2)c1 (centres unmarked) [Example I-59]
pest or weed control at 500 ppm (Septoria tritici): 90 to 100% | pest or weed control at 500 ppm (Puccinia recondita): 80 to 89% | pest or weed control at 500 ppm (Botrytis cinerea; [4]): 90 to 100% | pest or weed control at 500 ppm (Uromyces appendiculatus): 90 to 100% | pest or weed control at 500 ppm (Sphaerotheca fuliginea): 90 to 100%

Cc1ccccc1CC(O)(Cn1cncc1Cl)C1(Cl)CC1 (centres unmarked) [Example I-71]
pest or weed control at 500 ppm (Septoria tritici): 90 to 100% | pest or weed control at 500 ppm (Puccinia recondita): 90 to 100% | pest or weed control at 500 ppm (Botrytis cinerea; [4]): 90 to 100% | chromatographic logP [1]: 2.33 | pest or weed control at 500 ppm (Uromyces appendiculatus): 90 to 100% | pest or weed control at 500 ppm (Pyrenophora teres): 90 to 100% | pest or weed control at 500 ppm (Sphaerotheca fuliginea): 90 to 100%

Cc1cccc(CC(O)(Cn2cncc2Cl)C2(Cl)CC2)c1 (centres unmarked) [Example I-73]
pest or weed control at 500 ppm (Septoria tritici): 80 to 89% | pest or weed control at 500 ppm (Puccinia recondita): 80 to 89% | pest or weed control at 500 ppm (Botrytis cinerea; [4]): 90 to 100% | pest or weed control at 500 ppm (Pyrenophora teres): 80 to 89% | pest or weed control at 500 ppm (Sphaerotheca fuliginea): 90 to 100%

Cc1ccc(CC(O)(Cn2cncc2Cl)C2(Cl)CC2)cc1 (centres unmarked) [Example I-76]
pest or weed control at 500 ppm (Septoria tritici): 90 to 100% | pest or weed control at 500 ppm (Puccinia recondita): 90 to 100% | pest or weed control at 500 ppm (Botrytis cinerea; [4]): 90 to 100% | pest or weed control at 500 ppm (Pyrenophora teres): 90 to 100% | pest or weed control at 500 ppm (Sphaerotheca fuliginea): 90 to 100%

OC(Cc1ccc(Cl)cc1)(Cn1cncc1Cl)C1(Cl)CC1 (centres unmarked) [Example I-77]
pest or weed control at 500 ppm (Septoria tritici): 90 to 100% | pest or weed control at 500 ppm (Puccinia recondita): 80 to 89% | pest or weed control at 500 ppm (Botrytis cinerea; [4]): 90 to 100% | pest or weed control at 500 ppm (Uromyces appendiculatus): 90 to 100% | pest or weed control at 500 ppm (Pyrenophora teres): 80 to 89% | pest or weed control at 500 ppm (Sphaerotheca fuliginea): 90 to 100%

CC1(C(O)(Cc2ccccc2Cl)Cn2cncc2C#N)CC1 (centres unmarked) [Example I-79]
pest or weed control at 500 ppm (Septoria tritici): 90 to 100% | pest or weed control at 500 ppm (Puccinia recondita): 90 to 100% | pest or weed control at 500 ppm (Botrytis cinerea; [4]): 90 to 100% | chromatographic logP [1]: 2.87 | pest or weed control at 500 ppm (Uromyces appendiculatus): 90 to 100% | pest or weed control at 500 ppm (Pyrenophora teres): 90 to 100% | pest or weed control at 500 ppm (Sphaerotheca fuliginea): 90 to 100%

N#Cc1cncn1CC(O)(Cc1cccc(Cl)c1Cl)C1CCC1 (centres unmarked) [Example I-85]
pest or weed control at 500 ppm (Septoria tritici): 90 to 100% | pest or weed control at 500 ppm (Puccinia recondita): 90 to 100% | chromatographic logP [1]: 3.31 | pest or weed control at 500 ppm (Uromyces appendiculatus): 90 to 100% | pest or weed control at 500 ppm (Pyrenophora teres): 80 to 89% | pest or weed control at 500 ppm (Sphaerotheca fuliginea): 90 to 100%

Cc1ccc(CC(O)(Cn2cncc2Cl)C2(Cl)CC2)c(F)c1 (centres unmarked) [Example I-108]
pest or weed control at 500 ppm (Septoria tritici): 90 to 100% | pest or weed control at 500 ppm (Puccinia recondita): 90 to 100% | pest or weed control at 500 ppm (Botrytis cinerea; [4]): 90 to 100% | chromatographic logP [1]: 2.34 | pest or weed control at 500 ppm (Pyrenophora teres): 90 to 100% | pest or weed control at 500 ppm (Sphaerotheca fuliginea): 90 to 100%

COC(Cc1ccc(Cl)cc1F)(Cn1cncc1C#N)C1CC1 (centres unmarked) [Example I-121]
pest or weed control at 500 ppm (Septoria tritici): 90 to 100% | pest or weed control at 500 ppm (Puccinia recondita): 80 to 89% | chromatographic logP [1]: 3.31 | pest or weed control at 500 ppm (Uromyces appendiculatus): 90 to 100% | pest or weed control at 500 ppm (Pyrenophora teres): 70 to 79% | pest or weed control at 500 ppm (Sphaerotheca fuliginea): 90 to 100%

CC(C)C(O)(Cc1ccc(F)cc1F)Cn1cncc1C#N (centres unmarked) [Example I-128]
pest or weed control at 500 ppm (Septoria tritici): 90 to 100% | pest or weed control at 500 ppm (Puccinia recondita): 90 to 100% | pest or weed control at 500 ppm (Botrytis cinerea; [4]): 90 to 100% | chromatographic logP [1]: 2.52 | pest or weed control at 500 ppm (Uromyces appendiculatus): 90 to 100% | pest or weed control at 500 ppm (Sphaerotheca fuliginea): 90 to 100%

N#Cc1cncn1CC(O)(Cc1ccccc1F)C1CCC1 (centres unmarked) [Example I-137]
pest or weed control at 500 ppm (Septoria tritici): 90 to 100% | pest or weed control at 500 ppm (Puccinia recondita): 80 to 89% | pest or weed control at 500 ppm (Botrytis cinerea; [4]): 70 to 79% | chromatographic logP [1]: 2.46 | pest or weed control at 500 ppm (Uromyces appendiculatus): 90 to 100% | pest or weed control at 500 ppm (Sphaerotheca fuliginea): 90 to 100%

CC(C)C(O)(Cc1cccc(F)c1F)Cn1cncc1C#N (centres unmarked) [Example I-149]
pest or weed control at 500 ppm (Septoria tritici): 80 to 89% | pest or weed control at 500 ppm (Puccinia recondita): 90 to 100% | pest or weed control at 500 ppm (Botrytis cinerea; [4]): 70 to 79% | chromatographic logP [1]: 2.47 | pest or weed control at 500 ppm (Uromyces appendiculatus): 90 to 100% | pest or weed control at 500 ppm (Sphaerotheca fuliginea): 90 to 100%

N#Cc1cncn1CC(O)(Cc1cccc(F)c1F)CC1CC1 (centres unmarked) [Example I-151]
pest or weed control at 500 ppm (Septoria tritici): 90 to 100% | pest or weed control at 500 ppm (Puccinia recondita): 80 to 89% | chromatographic logP [1]: 2.66 | pest or weed control at 500 ppm (Uromyces appendiculatus): 90 to 100% | pest or weed control at 500 ppm (Pyrenophora teres): 70 to 79% | pest or weed control at 500 ppm (Sphaerotheca fuliginea): 90 to 100%

N#Cc1cncn1CC(O)(Cc1ccccc1I)C1(Cl)CC1 (centres unmarked) [Example I-166]
pest or weed control at 500 ppm (Septoria tritici): 70 to 79% | pest or weed control at 500 ppm (Puccinia recondita): 90 to 100% | chromatographic logP [1]: 3.13 | pest or weed control at 500 ppm (Uromyces appendiculatus): 90 to 100% | pest or weed control at 500 ppm (Pyrenophora teres): 80 to 89% | pest or weed control at 500 ppm (Sphaerotheca fuliginea): 90 to 100%

OC(Cc1ccccc1I)(Cn1cncc1Cl)C1(Cl)CC1 (centres unmarked) [Example I-167]
pest or weed control at 500 ppm (Puccinia recondita): 80 to 89% | pest or weed control at 500 ppm (Botrytis cinerea; [4]): 90 to 100% | pest or weed control at 500 ppm (Uromyces appendiculatus): 90 to 100% | pest or weed control at 500 ppm (Pyrenophora teres): 80 to 89% | pest or weed control at 500 ppm (Sphaerotheca fuliginea): 90 to 100%

OC(Cc1ccccc1Cl)(Cn1cnc(Br)c1)C1(Cl)CC1 (centres unmarked) [drawing 70, reference compound]
pest or weed control at 100 ppm (Botrytis cinerea; [5]): 5% | pest or weed control at 500 ppm (Botrytis cinerea; [6]): 0%

N#Cc1cn(CC(O)(Cc2ccccc2Cl)C2(Cl)CC2)cn1 (centres unmarked) [drawing 72, reference compound]
pest or weed control at 100 ppm (Botrytis cinerea; [5]): 0% | pest or weed control at 500 ppm (Botrytis cinerea; [6]): 0%

C#Cc1cn(CC(O)(Cc2ccccc2F)C2(Cl)CC2)cn1 (centres unmarked) [drawing 74, reference compound]
pest or weed control at 100 ppm (Botrytis cinerea; [5]): 0% | pest or weed control at 500 ppm (Botrytis cinerea; [6]): 0%

OC(Cc1ccccc1F)(Cn1cnc(Cl)c1)C1(Cl)CC1 (centres unmarked) [drawing 76, reference compound]
pest or weed control at 100 ppm (Botrytis cinerea; [5]): 0% | pest or weed control at 500 ppm (Botrytis cinerea; [6]): 0%

OC(Cc1ccccc1F)(Cn1ccnc1Cl)C1(Cl)CC1 (centres unmarked) [drawing 77, reference compound]
pest or weed control at 100 ppm (Botrytis cinerea; [5]): 0% | pest or weed control at 500 ppm (Botrytis cinerea; [6]): 0%

N#Cc1cn(CC(O)(Cc2ccccc2F)C2(Cl)CC2)cn1 (centres unmarked) [drawing 85, reference compound]
pest or weed control at 100 ppm (Botrytis cinerea; [5]): 0% | pest or weed control at 500 ppm (Botrytis cinerea; [6]): 0%
